The results in this text go back to patent US20250319053A1, “INHIBITORS OF THE PEPTIDYL-PROLYL CIS/TRANS ISOMERASE (PIN1), COMBINATIONS AND USES THEREOF” (DANA-FARBER CANCER INSTITUTE, INC., priority 2021, published 2025).

Test [1] has as its system PDAC tumors in GDA mice. Description: KPC mouse-derived orthotopic allograft (GDA) mouse model. The format is in vivo. The protocol: 2) the KPC Genetically engineered mouse-derived orthotopic allografts (GDA) mouse model (Hingorani et al., Cancer Cell 7, 469-483 (2005); Li et al., Comput Struct Biotechnol J 17, 498-506 (2019)). Mouse PDAC cells were established from KPC mouse pancreatic tumor tissues, followed by orthotopically injecting 1×10^6 mouse PDAC cells in 50 μL Matrigel (356231, Coaning) into the pancreas of female 8 week-old syngeneic immunocompetent C57BL/6 mice (Jackson Laboratories). 3) PDAC Patient-derived Tumor orthotopic xenografted (PDTX) mouse model (Gilles et al., Clin Cancer Res 24, 1734-1747 (2018); Rubio-Viqueira et al., Clin Cancer Res 12, 4652-4661 (2006)). PDAC PDX tumors were obtained from Dr. Muthuswamy and Dr. Hidalgo and divided into 4×2 mm pieces, followed by xenografting orthotopically into the pancreas of female 8-week-old immunodeficient NOD.Cg-Prkdc^scid Il12rg^tm1Wjl/SzJ (NOD scid gamma; NSG) mice (Jackson Laboratories). 4) PDAC Patient-derived Organoid and CAFs orthotopic xenograft (PDOX) mouse model (Dantes et al., JCI Insight 5, 137809 (2020); (Koikawa et al., Cancer letters 425, 65-77 (2018)). 5×10^4 patient derived PDAC organoids and 5×10^4 patient derived CAFs in 50 μL of Matrigel were injected orthotopically into the pancreas of female 8 week-old immunodeficient NSG mice (Jackson Laboratories).
Briefly, all mice were randomly selected to receive treatments groups. Tumor sizes were measured by weekly palpation with electronic caliper or ultrasound, and when tumors were reached >0.5 cm, the treatment was started. Briefly, animals were placed under general anesthesia with 2%-3% isoflurane once a week. Under general anesthesia, the abdominal wall became very flaccid, and the muscle tone of the mouse was very low. The mouse was scuffed with the left hand to allow for palpation and measurement with the right hand. This allowed to detect the firm pancreatic mass by palpation, and to determine its size by electronic caliper measurements. […] In the transgenic KPC mice, where spontaneous tumor development was expected, weekly palpation was started from age 8 weeks. When the tumor by palpation after age 12 weeks could not be detected, the mice were monitored by ultrasound. Once the maximum length >0.5 cm tumor was detected, the mice were randomized to treatment, and then followed tumor growth by electronic caliper measurement. To validate the external caliper measurements, the tumor size was measured prior to euthanization of the mice and then measured the actual tumor size upon necropsy to ascertain concordance. […] To evaluate the effects of CD8+ T cell or NK1.1′ cell depletion in GDA mice, mice were treated with anti-CD8 (200 μg, i.p., twice a week, BE0117, BioXcell) (Pantelidou et al., Cancer Discov. 9, 722-37 (2019)) or anti-NK1.1 (25 μg, i.p., twice a week, BE0036, BioXcell) (Waggoner et al., Nature 481, 394-398 (2011)), or vehicle (IgG isotype control), and/or Sulfopin (40 mg/kg, i.p., every day) (Pin1i−2) or vehicle (Sulfopin diluted solution; 5% NMP, 5% Solutol, 20% DMSO), and/or anti-PD1 (200 μg, i.p., every 3-4 days, BE0146, BioXcell) or vehicle (IgG isotype control). To test Sulfopin and/or PTX and/or anti-CTLA4 combination treatment in GDA mice, mice were treated with Sulfopin (40 mg/kg, i.p., every day) (Pin1i−2) or vehicle (Sulfopin diluted solution; 5% NMP, 5% Solutol, 20% DMSO), and/or PTX (10 mg/kg i.p., weekly) or vehicle (PTX diluted solution; 10% DMSO, 40% PEG300, 5% Tween 80, 45% Saline), and/or anti-CTLA-4 (250 μg, i.p., every 3-4 days, BE0032, BioXcell) or vehicle (IgG isotype control).

Test [2] concerns human PDAC organoids. Put plainly: Organoid apoptosis assay (caspase 3/7) with GEM or 5-FU. In kind it is cell-based. The protocol:
The organoids were isolated from Matrigel using collagenase, and seed Matrigel coated 96 well plate, and then treated with control (PBS) or GEM, or control (DMSO) or 5-FU, followed by assaying organoid apoptosis using fluorescent caspase 3/7 and live-cell time lapse imaging for 24 hr. At the start of coculture, a green-fluorescent caspase 3/7 probe reagent (R37111, Invitrogen) and Hoechst (135102, Invitrogen) was added to visualize cells undergoing apoptosis. Apoptotic organoids were monitored by time lapse imaging using BZ-X800 fluorescence microscope (KEYENCE) and quantified using BZ-X800 analyzer (ver. 1.1.1.8, KEYENCE). […] Synergy scores were calculated by Synergyfinder ver 2 (synergyfinder.fimm.fi/) (Ianevski et al., Nucleic Acids Res. 48 IW1), […]-[…] (2020)).

The mark [3] stands for this setting: GDA mice, FIG. 9A, GEM 20 mg/kg, n=6, vehicle 34 days.

`Nc1ccn([C@@H]2O[C@H](CO)[C@@H](O)C2(F)F)c(=O)n1` [GEM, gemcitabine, reference compound]: the Median survival in test [1] (setting [3]) is 42 days. Besides, in test [2] (GEM at 25 nM for 24 hrs), the “organoid apoptosis, agent alone” value was “neither Pin1i nor GEM alone had obvious effect”.
`CC(C)(C)CN(C(=O)CCl)C1CCS(=O)(=O)C1` (stereo not shown) [Pin1i−2, sulfopin]: the “desmoplastic (fibrotic) and immunosuppressive TME” value in test [1] (GDA mice) was “potently reduce the fibrotic TME”. For the same molecule, in test [1] (GDA mice, 4 weeks), the “CAF activation (IF for αSMA or PDGFRα)” value is given as “significantly reduced” and the “collagen deposition (Sirius Red staining)” value is given as “significantly reduced”. Also, the Median survival in test [1] (setting [3]) stood at 56 days. Further, the Median survival in test [1] (GDA mice, FIG. 9I, treated up to 150 days, GEM 10 mg/kg weekly, αPD1, n=8, vehicle 36.5 days) was found to be 54 days. In addition, the tumor growth entry in test [1] (overt tumor-bearing GDA mice) is on record as “significantly reduced tumor growth”. Also, the “apoptosis in WT organoids” value in test [2] (Pin1i−2 at 5 μM 3 days, then GEM at 25 nM for 24 hrs) is listed as “induced apoptosis in WT organoids”. Moreover, in test [2] (pre-treated with Pin1i−1 at 10 μM or Pin1i−2 at 5 μM for 72 hrs, then GEM at 25 nM for 24 hrs), the GEM-mediated organoid apoptosis result is on record as “greatly potentiated GEM-mediated organoid apoptosis”.
